Data from US20130310436A1, “METHODS FOR PREDICTING RESPONSE TO BETA-BLOCKER THERAPY IN NON-ISCHEMIC HEART FAILURE PATIENTS” (The Regents of the University of Colorado, a body corporate, priority 2012, published 2013).

Tests used:
Type in all cases: in vivo, human
[1] = test system: patients with non-ischemic HFREF; assay: BEST trial retrospective analysis: all-cause mortality at one year, bucindolol vs placebo, by latent class subtype
From the text: (§1) Methods: A total of 1121 patients with non-ischemic HFREF from the β-blocker Evaluation of Survival Trial were categorized according to 27 clinical features. See Tables 1 and 2 for the clinical features or information used. Latent class analysis was used to generate two latent class models, LCM A and B, Tables 3 and 4, respectively, to identify HFREF subtypes. LCM A consisted of features associated with HF pathogenesis, whereas LCM B consisted of markers of HF progression and severity. The Seattle Heart Failure Model (SHFM) Score was also calculated for all patients. Mortality, improvement in left ventricular ejection fraction (LVEF) defined as an increase in LVEF ≧5% and a final LVEF of […] after 12 months, and effect of bucindolol on both outcomes were compared across HFREF subtypes. Performance of models that included a combination of LCM subtypes and SHFM scores towards predicting mortality and LVEF response was estimated and subsequently validated using leave-one-out cross-validation and data from the Multicenter Oral Carvedilol Heart Failure Assessment (MOCHA) Trial.
Methods: All patients had New York Heart Association (NYHA) class III or IV HFREF (LVEF ≦35%) and were randomized in a double-blind fashion to either bucindolol (a β-blocker) or placebo. Patients were considered ischemic if they had ≧70% obstruction in a major epicardial coronary artery by angiography or evidence of prior myocardial infarction and excluded from this analysis. The primary endpoint was cumulative all-cause mortality. Secondary endpoints were all-cause mortality at one year and LVEF response defined as improvement in LVEF ≧5% with a final LVEF of ≧35% as measured using multi-gated acquisition scan (MUGA). […] They were randomized to placebo, low (6.25 mg bid), medium (12.5 mg bid), or high-dose (25 mg bid) carvedilol. Death and LVEF improvement as measured by MUGA were secondary endpoints in the original MOCHA analysis. Mortality data was only available up to one year of follow-up in MOCHA. […]

[2] = test system: patients with non-ischemic HFREF; assay: BEST trial retrospective analysis: cumulative all-cause mortality, bucindolol vs placebo, by latent class subtype
From the text: as §1
(§2) Methods: All patients had New York Heart Association (NYHA) class III or IV HFREF (LVEF ≦35%) and were randomized in a double-blind fashion to either bucindolol (a β-blocker) or placebo. Patients were considered ischemic if they had ≧70% obstruction in a major epicardial coronary artery by angiography or evidence of prior myocardial infarction and excluded from this analysis. The primary endpoint was cumulative all-cause mortality. Secondary endpoints were all-cause mortality at one year and LVEF response defined as improvement in LVEF ≧5% with a final LVEF of ≧35% as measured using multi-gated acquisition scan (MUGA). […] They were randomized to placebo, low (6.25 mg bid), medium (12.5 mg bid), or high-dose (25 mg bid) carvedilol. Death and LVEF improvement as measured by MUGA were secondary endpoints in the original MOCHA analysis. Mortality data was only available up to one year of follow-up in MOCHA.
(§3) Association between latent class models and outcomes: Cox proportional-hazards models and the log-rank test were used to examine the associations between latent classes and cumulative all-cause mortality according to the intention-to-treat principle. These models were fit using the coxph and survfit functions from the survival library in the R statistical package. Logistic regression models were used for the one-year mortality and LVEF response outcomes. Interactions between latent classes and the treatment groups were used to estimate the response to treatment within each subtype.

[3] = test system: patients with non-ischemic HFREF; assay: BEST trial retrospective analysis: LVEF response (improvement in LVEF ≧5% with final LVEF ≧35%, MUGA), bucindolol vs placebo, by latent class subtype
From the text: as §1, §2, §3

**Q.** How did the “effect of bucindolol on one-year mortality” value ([1]; LCM A subtype A3, at 12 months, disappeared at subsequent follow-up) turn out when `CC(C)(Cc1c[nH]c2ccccc12)NCC(O)COc1ccccc1C#N` (stereo not shown) [bucindolol] was run?
**A.** marginally significant difference

**Q.** What about the “effect of bucindolol on one-year mortality” value ([1]; LCM A subtype A6, did not reach statistical significance) of the same compound?
**A.** trended towards benefit

**Q.** What about the “effect of bucindolol on one-year mortality” value ([1]; LCM B subtype B2, did not reach statistical significance) of the same compound?
**A.** trended towards benefit

**Q.** And the “reduction in cumulative all-cause mortality associated with bucindolol” value ([2]; LCM A subtype A1)?
**A.** no reduction

**Q.** What about the “reduction in mortality with bucindolol” value ([2]; LCM A subtype A2 (discussion)) of the same compound?
**A.** no significant reduction

**Q.** What about the “all-cause mortality with bucindolol” value ([2]; LCM A subtype A6, only LCM A subtype (discussion)) of the same compound?
**A.** decrease

**Q.** What about the “absolute risk reduction, cumulative all-cause mortality” value ([2]; LCM A subtype A6, p=0.01) of the same compound?
**A.** 10.2%

**Q.** What about the “relative risk reduction, cumulative all-cause mortality” value ([2]; LCM A subtype A6, p=0.01) of the same compound?
**A.** 42%

**Q.** What about the “improvement in mortality associated with bucindolol” value ([2]; LCM B subtype B2, p=0.01) of the same compound?
**A.** significant improvement

**Q.** What about the “overall effect of bucindolol” value ([2]; all non-ischemic BEST patients (discussion)) of the same compound?
**A.** not significant

**Q.** What about the “patients in the bucindolol group died (cumulative all-cause mortality)” value ([2]; all non-ischemic BEST patients, 131/558) of the same compound?
**A.** 23.5%

**Q.** What about the “HR, cumulative all-cause mortality, bucindolol vs placebo” value ([2]; all non-ischemic BEST patients, 95% CI 0.65-1.04, p=0.1) of the same compound?
**A.** 0.82

**Q.** And the “likelihood of LVEF response with bucindolol” value (from here on “likelihood … with bucindolol”) ([3]; LCM A subtype A1)?
**A.** no effect

**Q.** What about the “likelihood … with bucindolol” value ([3]; LCM A subtype A2) of the same compound?
**A.** significant increase

**Q.** And the “absolute increase in likelihood of LVEF response” value ([3]; LCM A subtype A3)?
**A.** 24.3%

**Q.** And the “likelihood … with bucindolol” value ([3]; LCM A subtype A3)?
**A.** significant increase

**Q.** What about the “relative increase in likelihood of LVEF response” value ([3]; LCM A subtype A3) of the same compound?
**A.** 156%

**Q.** What about the “likelihood … with bucindolol” value ([3]; LCM A subtype A5) of the same compound?
**A.** significant increase

**Q.** And the “likelihood … with bucindolol” value ([3]; LCM A subtype A6)?
**A.** significant increase

**Q.** And the “likelihood of improvement in LVEF” value ([3]; LCM B subtype B1)?
**A.** reached statistical significance

**Q.** And the “likelihood of improvement in LVEF” value ([3]; LCM B subtype B2)?
**A.** reached statistical significance

**Q.** And the “likelihood of improvement in LVEF” value ([3]; all LCM B subtypes, relative and absolute terms)?
**A.** increased comparably
